The values that follow come from patent US9878986B2, “Compounds for selective histone deacetylase inhibitors, and pharmaceutical composition comprising the same” (CHONG KUN DANG PHARMACEUTICAL CORP., priority 2013, dated 2018).

Molecules are shown by their SMILES.

Type in all cases: biochemical
For one test, the target named is T1, HDAC 2 (Homo sapiens, UniProt Q92769).
T1 construct: Reaction Biology Corp
Put plainly: HDAC panel by Reaction Biology Corp., HDAC 2. Particulars: read-out: HDAC inhibitory activities, HDAC 2. The source says:
(§1) The inhibitory activities of Compounds 255 and 374 on all HDACs were confirmed (by Reaction Biology Corp.).

For a further test, the target named is T2, HDAC 4 (Homo sapiens, UniProt P56524).
T2 construct: Reaction Biology Corp
T2 sequence (P56524 whole entry): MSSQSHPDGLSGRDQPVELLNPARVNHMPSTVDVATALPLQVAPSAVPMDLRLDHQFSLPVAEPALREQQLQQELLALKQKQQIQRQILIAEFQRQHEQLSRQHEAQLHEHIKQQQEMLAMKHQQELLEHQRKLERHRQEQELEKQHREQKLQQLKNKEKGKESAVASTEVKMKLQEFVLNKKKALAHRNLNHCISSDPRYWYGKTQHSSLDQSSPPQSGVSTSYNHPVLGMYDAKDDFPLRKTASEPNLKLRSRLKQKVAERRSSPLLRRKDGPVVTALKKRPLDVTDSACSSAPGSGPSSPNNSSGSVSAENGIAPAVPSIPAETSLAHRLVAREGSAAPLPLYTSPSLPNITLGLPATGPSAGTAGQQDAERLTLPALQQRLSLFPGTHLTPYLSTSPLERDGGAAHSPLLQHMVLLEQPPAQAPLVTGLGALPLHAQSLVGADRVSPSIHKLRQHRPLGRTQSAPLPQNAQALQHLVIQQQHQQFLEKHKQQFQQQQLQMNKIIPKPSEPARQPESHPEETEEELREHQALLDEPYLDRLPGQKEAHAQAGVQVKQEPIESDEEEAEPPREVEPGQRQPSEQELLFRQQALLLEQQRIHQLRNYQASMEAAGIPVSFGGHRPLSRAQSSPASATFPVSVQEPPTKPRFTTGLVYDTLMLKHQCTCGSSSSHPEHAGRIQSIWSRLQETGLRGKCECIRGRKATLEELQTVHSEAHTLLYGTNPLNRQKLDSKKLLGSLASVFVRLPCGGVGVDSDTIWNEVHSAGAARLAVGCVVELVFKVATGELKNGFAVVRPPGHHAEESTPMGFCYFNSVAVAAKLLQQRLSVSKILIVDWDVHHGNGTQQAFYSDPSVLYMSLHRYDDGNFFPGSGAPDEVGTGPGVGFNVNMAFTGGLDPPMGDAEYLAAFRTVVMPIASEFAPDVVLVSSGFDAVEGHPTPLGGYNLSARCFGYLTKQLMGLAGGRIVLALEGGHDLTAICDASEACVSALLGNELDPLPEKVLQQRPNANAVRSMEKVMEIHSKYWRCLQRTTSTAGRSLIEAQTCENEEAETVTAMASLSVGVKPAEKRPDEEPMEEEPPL
The experiment in a line: HDAC panel by Reaction Biology Corp., HDAC 4. To be noted: read-out: HDAC inhibitory activities, HDAC 4.
Excerpt: as §1

A further test deals with T3, HDAC 7 (Homo sapiens, UniProt Q8WUI4).
T3 construct: Reaction Biology Corp
T3 sequence (Q8WUI4 1-952): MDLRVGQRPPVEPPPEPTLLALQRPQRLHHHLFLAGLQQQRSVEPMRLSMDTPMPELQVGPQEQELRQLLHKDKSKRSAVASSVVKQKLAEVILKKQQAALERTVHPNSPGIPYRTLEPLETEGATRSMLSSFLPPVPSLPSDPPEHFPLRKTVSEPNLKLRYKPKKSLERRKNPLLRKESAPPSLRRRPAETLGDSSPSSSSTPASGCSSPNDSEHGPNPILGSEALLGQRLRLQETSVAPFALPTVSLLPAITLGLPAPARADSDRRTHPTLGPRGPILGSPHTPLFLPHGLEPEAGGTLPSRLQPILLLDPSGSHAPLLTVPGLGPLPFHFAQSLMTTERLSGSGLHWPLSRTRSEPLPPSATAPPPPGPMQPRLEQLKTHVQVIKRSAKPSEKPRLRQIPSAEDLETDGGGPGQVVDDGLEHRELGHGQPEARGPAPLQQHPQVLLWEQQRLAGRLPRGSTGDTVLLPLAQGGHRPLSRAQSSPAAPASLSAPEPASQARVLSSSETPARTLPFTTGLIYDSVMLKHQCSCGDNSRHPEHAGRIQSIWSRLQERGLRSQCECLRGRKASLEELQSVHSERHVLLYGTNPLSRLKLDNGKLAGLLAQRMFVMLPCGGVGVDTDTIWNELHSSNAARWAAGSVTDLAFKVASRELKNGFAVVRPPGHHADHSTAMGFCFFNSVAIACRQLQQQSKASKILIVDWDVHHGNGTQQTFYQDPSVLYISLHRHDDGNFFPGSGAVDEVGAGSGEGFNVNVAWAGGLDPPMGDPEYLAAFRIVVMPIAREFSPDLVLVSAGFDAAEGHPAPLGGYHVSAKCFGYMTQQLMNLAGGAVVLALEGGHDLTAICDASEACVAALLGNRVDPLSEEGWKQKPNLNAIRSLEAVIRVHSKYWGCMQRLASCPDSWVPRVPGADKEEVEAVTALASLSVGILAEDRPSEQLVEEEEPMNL
The experiment in a line: HDAC panel by Reaction Biology Corp., HDAC 7. Particulars: read-out: HDAC inhibitory activities, HDAC 7.
Excerpt: as §1

The target in the next test is T4, HDAC 8 (Homo sapiens, UniProt Q9BY41).
T4 construct: Reaction Biology Corp
T4 sequence (Q9BY41 1-377): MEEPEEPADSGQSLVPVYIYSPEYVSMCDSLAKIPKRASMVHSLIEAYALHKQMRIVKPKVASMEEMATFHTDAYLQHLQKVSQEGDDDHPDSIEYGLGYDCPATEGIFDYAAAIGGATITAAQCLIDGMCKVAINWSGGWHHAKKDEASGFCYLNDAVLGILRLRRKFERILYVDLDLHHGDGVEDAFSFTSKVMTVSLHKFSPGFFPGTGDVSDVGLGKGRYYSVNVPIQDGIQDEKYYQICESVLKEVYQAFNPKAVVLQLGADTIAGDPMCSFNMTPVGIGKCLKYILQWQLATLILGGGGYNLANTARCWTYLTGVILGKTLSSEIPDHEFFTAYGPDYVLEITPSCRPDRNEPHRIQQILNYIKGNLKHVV
Put plainly: HDAC panel by Reaction Biology Corp., HDAC 8. To be noted: read-out: HDAC inhibitory activities, HDAC 8.
Excerpt: as §1

In a further test the target is T5, HDAC 10 (Homo sapiens, UniProt Q969S8).
T5 construct: Reaction Biology Corp
T5 sequence (Q969S8 1-669): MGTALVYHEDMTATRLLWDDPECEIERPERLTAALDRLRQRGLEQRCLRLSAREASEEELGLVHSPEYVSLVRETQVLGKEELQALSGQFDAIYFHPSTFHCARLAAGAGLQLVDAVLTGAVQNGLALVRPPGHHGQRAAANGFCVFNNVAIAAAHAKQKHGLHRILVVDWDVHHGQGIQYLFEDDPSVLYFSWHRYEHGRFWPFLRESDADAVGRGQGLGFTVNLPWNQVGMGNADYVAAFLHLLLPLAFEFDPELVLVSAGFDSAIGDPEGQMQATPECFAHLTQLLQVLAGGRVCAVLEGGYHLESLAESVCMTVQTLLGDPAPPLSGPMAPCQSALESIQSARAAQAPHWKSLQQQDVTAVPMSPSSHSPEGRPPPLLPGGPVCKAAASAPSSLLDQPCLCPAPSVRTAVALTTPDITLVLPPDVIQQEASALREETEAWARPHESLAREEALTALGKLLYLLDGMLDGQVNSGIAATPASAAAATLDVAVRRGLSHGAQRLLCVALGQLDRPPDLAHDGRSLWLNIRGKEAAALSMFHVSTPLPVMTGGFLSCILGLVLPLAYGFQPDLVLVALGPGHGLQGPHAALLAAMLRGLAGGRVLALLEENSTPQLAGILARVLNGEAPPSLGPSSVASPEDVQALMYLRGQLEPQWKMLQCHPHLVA
Put plainly: HDAC panel by Reaction Biology Corp., HDAC 10. To be noted: read-out: HDAC inhibitory activities, HDAC 10.
Excerpt: as §1

T1 sequence (Q92769 whole entry): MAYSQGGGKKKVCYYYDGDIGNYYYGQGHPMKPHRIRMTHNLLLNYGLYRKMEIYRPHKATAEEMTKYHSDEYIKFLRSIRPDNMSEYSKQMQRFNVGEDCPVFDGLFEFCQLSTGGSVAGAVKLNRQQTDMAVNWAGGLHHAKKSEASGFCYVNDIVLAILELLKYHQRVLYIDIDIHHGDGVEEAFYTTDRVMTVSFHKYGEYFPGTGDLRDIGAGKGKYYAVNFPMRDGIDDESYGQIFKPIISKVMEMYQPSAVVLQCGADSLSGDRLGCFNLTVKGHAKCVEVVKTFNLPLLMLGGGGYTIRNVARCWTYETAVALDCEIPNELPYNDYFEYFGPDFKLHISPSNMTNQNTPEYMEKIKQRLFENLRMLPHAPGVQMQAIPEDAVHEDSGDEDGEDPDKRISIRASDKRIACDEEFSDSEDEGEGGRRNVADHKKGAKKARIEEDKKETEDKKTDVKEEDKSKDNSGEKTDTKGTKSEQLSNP

On to `O=C(NO)c1ccc(CN(C(=O)N2CCOCC2)c2cccc(Br)c2)cc1` [Compound 255, N-(3-bromophenyl)-N-(4-(hydroxycarbamoyl)benzyl)morpholine-4-carboxamide], for which the IC50 is 0.69 µM on HDAC 2; 6.86 µM at HDAC 4; 1.5 µM at HDAC 7; 0.65 µM at HDAC 8; 1.47 µM on HDAC 10.
For `O=C(NO)c1ccc(CN(C(=O)N2CCOCC2)c2cccc(C(F)(F)F)c2)cc1` [Compound 374, N-(4-(hydroxycarbamoyl)benzyl)-N-(3-(trifluoromethyl)phenyl)morpholine-4-carboxamide] the same measures were 4.88 µM, 16.4 µM, 5.25 µM, 2.07 µM and 16.2 µM.
